Source: patent publication US11311533B2, “Opioid receptor antagonist conjugate and use thereof” (SHANGHAI HANMAI BIO-PHARMA CO., LTD., priority 2016, dated 2022)
“And” between values parts separate entries of the source, which are not always exact repeats. Equal entries are not always repeated. Structures can show the parent of a compound that is named as a salt. Where two headings read alike, the source gives them in different places.

What was measured:
[1] = biological target: T1, OPRM1 (Mμ opioid receptor gene) receptor (Homo sapiens, UniProt P35372); assay: cell-based; conditions: for inhibition at 10 µM: OPRM1, read-out: Inhibition rate (%) of highest concentration (mean ± standard deviation) (N = 2)
T1 sequence (P35372 whole entry): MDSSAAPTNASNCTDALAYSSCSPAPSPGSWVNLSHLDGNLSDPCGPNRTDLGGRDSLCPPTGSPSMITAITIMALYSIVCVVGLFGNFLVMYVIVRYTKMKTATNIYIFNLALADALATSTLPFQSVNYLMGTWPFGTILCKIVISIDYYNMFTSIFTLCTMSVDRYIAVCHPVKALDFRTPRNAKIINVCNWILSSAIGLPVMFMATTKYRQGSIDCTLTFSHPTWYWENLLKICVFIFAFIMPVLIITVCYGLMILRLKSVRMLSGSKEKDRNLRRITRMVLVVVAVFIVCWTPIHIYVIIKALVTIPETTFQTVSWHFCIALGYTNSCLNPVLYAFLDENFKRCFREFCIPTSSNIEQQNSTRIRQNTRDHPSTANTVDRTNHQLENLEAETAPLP
Description: (§1) Cell suspension was inoculated into a 384-well microplate at a density of 15,000 cells per well, and cultured in a 37° C./5% CO2 incubator for at least 18 hours before experiment.
(§2) Before the test, the conjugates to be tested was diluted with HBSS buffer (containing 20 mM HEPES) and prepared as 5× solution with a concentration five times of the test solution. […] The concentration of the corresponding control DMSO is 0.1%.
(§3) The protocol for preparing agonist detection: cells were inoculated into 384-well microplates, 20 μl of cell suspension per well (containing 15,000 cells); the plate was placed in 37° C./5% CO2 incubator to continue the culture; cells were taken out after 18 hours, and dye was added, 20 μl per well; the plate was incubated in 37° C./5% CO2 incubator for 1 hour and equilibrated at room temperature for 15 minutes; and 10 μl of 5× test solution of agonist was added to each well for RFU value detection.
(§4) The protocol for preparing inhibitor detection: cells were inoculated into 384-well microplates, 20 μl of cell suspension per well (containing 15,000 cells); the plate was placed in 37° C./5% CO2 incubator to continue the culture; cells were taken out after 18 hours; for the inhibitor detection, 20 μl of dye was added to the plate, and then 10 μl of prepared conjugate solution was added; the plate was incubated in 37° C./5% CO2 for 1 hour and equilibrate at room temperature for 15 minutes; 12.5 μl of 5× EC80 positive agonist was added for RFU value detection.
(§5) The 384-well microplate containing the conjugate solution (5× test concentration), cell plate and pipette tip box were placed in FLIPR (Molecule Devices), and the agonist detection program was run. The overall detection time of the instrument was 120 seconds. 10 μl of agonist was automatically added to the plate at the 21st second. […] (Molecule Devices), and the inhibitor detection program was run. The overall detection time of the instrument was 120 seconds. 12.5 μl of positive agonist was automatically added to the plate at the 21st second.

[2] = system: mice; assay: Mouse hot plate analgesia experiment (antagonism of morphine analgesia, blood-brain barrier study); conditions: for Average Pain Threshold after Administration (s) Mean ± SD: 60 minutes after administration; for Difference between the pain threshold before and after administration (significance): before vs 60 minutes after administration, Na1037 and Na1041: high-dose groups; for Passage through the blood-brain barrier (concluded from antagonism of the analgesic effect of morphine): mouse hot plate, conjugate subcutaneous after morphine by gavage
Description: Six conjugates Na1021, Na1029, Na1045, Na1037, Na1041, and Na1049 were subjected to mouse hot plate analgesia experiments for four times, respectively. In each experiment, mice (JOINN Laboratories (Suzhou)) were randomly divided into four groups (eight per group): one blank control group, one morphine control group, and two other groups which were administered with morphine by gavage first, and then low dose and high dose of the conjugates were subcutaneously injected respectively. The mice were put on a hot plate (55±0.1) ° C. before administration, and the time was recorded immediately. The duration from the beginning on the hot plate to the first hind paw licking was recorded as the reaction time of heat-pain sensation (i.e., pain threshold, the unit is second (s)). The pain threshold was set as 100% analgesia if there was no hind paw licking in 60 seconds. It was recorded as 60 seconds when the time exceeded 60 seconds to prevent burn of foot. The mice were again put on a (55±0.1) ° C. hot plate 60 minutes after the administration of drug and the reaction time of heat-pain sensation was recorded. […] The value of the pain thresholds before and after administration was compared and the percentage of increase in pain threshold was calculated according to the following formula to determine the effect of drug on antagonizing morphine analgesia. Percentage of increase in pain threshold=[(average heat pain threshold after administration−average pain threshold before administration)/average pain threshold before administration]×100%

[3] = system: mice; assay: Anti-constipation study: antagonizing the antidiarrheal effect of loperamide hydrochloride (castor oil diarrhea); format: in vivo
Description: The anti-constipation study experiment was completed by using the test of antagonizing the antidiarrheal effect of loperamide hydrochloride. The specific experiment process was: the mice were divided into groups randomly, eight mice each group, wherein one group was administered with 0.5 mL of castor oil by gavage, one group was administered with 2 mg/kg loperamide hydrochloride and 0.5 mL of castor oil by gavage, and conjugate test groups were respectively administered with Na1021 (300 nmol/kg), Na1029 (300 nmol/kg), Na1033 (300 nmol/kg) and Na1045 (600 nmol/kg) by gavage first, and then with 2 mg/kg loperamide and 0.5 mL castor oil by gavage.
The mice were divided into groups randomly, eight mice each group, wherein one group was administered with 0.5 mL of castor oil by gavage, one group was administered with 2 mg/kg loperamide and 0.5 mL castor oil by gavage, other groups were respectively administered with different doses of conjugate Na1029 first, then with 2 mg/kg loperamide hydrochloride and 0.5 mL castor oil by gavage.

[4] = biological target: T1, OPRM1 (Mμ opioid receptor gene) receptor
Description: as §1, §2, §3, §4, §5

[5] = 4 μmol/kg subcutaneous + Morphine by gavage
[6] = 20 μmol/kg subcutaneous + Morphine by gavage
[7] = Table 10: 300 nmol/kg by gavage + Loperamide Hydrochloride + Castor Oil
[8] = Table 11: 500 μg/kg + Loperamide Hydrochloride + Castor Oil

COCCOCCOCCOCCOCCOCCO[C@H]1CC[C@@]2(O)[C@H]3Cc4ccc(O)c5c4[C@@]2(CCN3CC2CC2)[C@H]1O5 [Nal037, mPEG6-(6-α-naltrexol)-ether]
IC50 [1]: 225 nM
inhibition at 10 µM [1]: 100.6 ± 0.34%
Average Pain Threshold before Administration (s) Mean ± SD ([2]; 4 μmol/kg + Morphine group): 19.38 ± 5.21 s
Percentage of Increase in Pain Threshold ([2]; 4 μmol/kg + morphine): 62.54%
Average Pain Threshold after Administration (s) Mean ± SD [2, 5]: 31.50 ± 11.83 s
Average Pain Threshold before Administration (s) Mean ± SD ([2]; 20 μmol/kg + Morphine group): 20.5 ± 3.93 s
Percentage of Increase in Pain Threshold ([2]; 20 μmol/kg + morphine): 1.85%
Average Pain Threshold after Administration (s) Mean ± SD [2, 6]: 20.88 ± 5.87 s
Difference between the pain threshold before and after administration (significance) [2]: not significant
Passage through the blood-brain barrier (concluded from antagonism of the analgesic effect of morphine) [2]: can pass through the blood-brain barrier

C=CCN1CC[C@]23c4c5ccc(O)c4O[C@H]2[C@@H](OCCOCCOCCOCCOCCOCCOCCOCCOC)CC[C@@]3(O)[C@H]1C5 [Nal049, mPEG8-(6-α-naloxol)-ether]
IC50 [1]: 1050 nM
inhibition at 10 µM [1]: 94.3 ± 5.39%
Average Pain Threshold before Administration (s) Mean ± SD ([2]; 4 μmol/kg + Morphine group): 14.00 ± 7.09 s
Percentage of Increase in Pain Threshold ([2]; 4 μmol/kg + morphine): 125.93%
Average Pain Threshold after Administration (s) Mean ± SD [2, 5]: 31.63 ± 10.04 s
Average Pain Threshold before Administration (s) Mean ± SD ([2]; 20 μmol/kg + Morphine group): 13.5 ± 5.07 s
Percentage of Increase in Pain Threshold ([2]; 20 μmol/kg + morphine): 91.70%
Average Pain Threshold after Administration (s) Mean ± SD [2, 6]: 25.88 ± 7.64 s
Passage through the blood-brain barrier (concluded from antagonism of the analgesic effect of morphine) [2]: cannot pass through the blood-brain barrier

Oc1ccc2c3c1O[C@H]1[C@@H](OCCOCCOCCOCCOCCOCCOCCOCCOCCOCCO[C@H]4CC[C@@]5(O)[C@H]6Cc7ccc(O)c8c7[C@@]5(CCN6CC5CC5)[C@H]4O8)CC[C@@]4(O)[C@@H](C2)N(CC2CC2)CC[C@]314 [Nal033, PEG10-(6-α-naltrexol)2-ether]
IC50 [1]: 197 nM
inhibition at 10 µM [1]: 99.1 ± 1%
Total Number of Diarrhea Times Six Hours after Administration [3, 7]: 15.25 ± 4.13

Oc1ccc2c3c1O[C@H]1[C@@H](OCCOCCOCCOCCOCCOCCO[C@H]4CC[C@@]5(O)[C@H]6Cc7ccc(O)c8c7[C@@]5(CCN6CC5CC5)[C@H]4O8)CC[C@@]4(O)[C@@H](C2)N(CC2CC2)CC[C@]314 [Nal025, PEG6-(6-α-naltrexol)2-ether]
IC50 [1]: 185 nM
inhibition at 10 µM [1]: 100.6 ± 0.48%

COCCOCCOCCOCCOCCOCCOCCOCCO[C@H]1CC[C@@]2(O)[C@H]3Cc4ccc(O)c5c4[C@@]2(CCN3CC2CC2)[C@H]1O5 [Nal041, mPEG8-(6-α-naltrexol)-ether]
IC50 [1]: 210 nM
inhibition at 10 µM [1]: 95.8 ± 1.86%
Average Pain Threshold before Administration (s) Mean ± SD ([2]; 4 μmol/kg + Morphine group): 14.25 ± 1.75 s
Percentage of Increase in Pain Threshold ([2]; 4 μmol/kg + morphine): 170.18%
Average Pain Threshold after Administration (s) Mean ± SD [2, 5]: 38.5 ± 14.74 s
Average Pain Threshold before Administration (s) Mean ± SD ([2]; 20 μmol/kg + Morphine group): 16.88 ± 6.79 s
Percentage of Increase in Pain Threshold ([2]; 20 μmol/kg + morphine): 30.33%
Average Pain Threshold after Administration (s) Mean ± SD [2, 6]: 22.00 ± 5.12 s
Difference between the pain threshold before and after administration (significance) [2]: not significant
Passage through the blood-brain barrier (concluded from antagonism of the analgesic effect of morphine) [2]: can pass through the blood-brain barrier

Oc1ccc2c3c1O[C@H]1[C@@H](OCCOCCOCCOCCO[C@H]4CC[C@@]5(O)[C@H]6Cc7ccc(O)c8c7[C@@]5(CCN6CC5CC5)[C@H]4O8)CC[C@@]4(O)[C@@H](C2)N(CC2CC2)CC[C@]314 [Nal021, PEG4-(6-α-naltrexol)2-ether]
IC50 [1]: 229 nM
inhibition at 10 µM [1]: 100.3 ± 0.56%
Average Pain Threshold before Administration (s) Mean ± SD ([2]; 4.36 μmol/kg + Morphine group): 20.63 ± 7.07 s
Percentage of Increase in Pain Threshold ([2]; 4.36 μmol/kg + morphine): 172.66%
Average Pain Threshold after Administration (s) Mean ± SD ([2]; 4.36 μmol/kg subcutaneous + Morphine by gavage): 56.25 ± 10.61 s
Average Pain Threshold before Administration (s) Mean ± SD ([2]; 21.8 μmol/kg + Morphine group): 18.63 ± 4.60 s
Percentage of Increase in Pain Threshold ([2]; 21.8 μmol/kg + morphine): 220.72%
Average Pain Threshold after Administration (s) Mean ± SD ([2]; 21.8 μmol/kg subcutaneous + Morphine by gavage): 59.75 ± 0.71 s
Passage through the blood-brain barrier (concluded from antagonism of the analgesic effect of morphine) [2]: cannot pass through the blood-brain barrier

Oc1ccc2c3c1O[C@H]1[C@@H](OCCOCCOCCOCCOCCOCCOCCOCCO[C@H]4CC[C@@]5(O)[C@H]6Cc7ccc(O)c8c7[C@@]5(CCN6CC5CC5)[C@H]4O8)CC[C@@]4(O)[C@@H](C2)N(CC2CC2)CC[C@]314 [Nal029, PEG8-(6-α-naltrexol)2-ether]
IC50 [1]: 161 nM
inhibition at 10 µM [1]: 98 ± 3.09%
Average Pain Threshold before Administration (s) Mean ± SD ([2]; 3.66 μmol/kg + Morphine group): 20.00 ± 5.71 s
Percentage of Increase in Pain Threshold ([2]; 3.66 μmol/kg + morphine): 200.00%
Average Pain Threshold after Administration (s) Mean ± SD ([2]; 3.66 μmol/kg subcutaneous + Morphine by gavage): 60.00 ± 0 s
Average Pain Threshold before Administration (s) Mean ± SD ([2]; 18.28 μmol/kg + Morphine group): 22.13 ± 7.26 s
Percentage of Increase in Pain Threshold ([2]; 18.28 μmol/kg + morphine): 155.31%
Average Pain Threshold after Administration (s) Mean ± SD ([2]; 18.28 μmol/kg subcutaneous + Morphine by gavage): 56.5 ± 9.90 s
Passage through the blood-brain barrier (concluded from antagonism of the analgesic effect of morphine) [2]: cannot pass through the blood-brain barrier
Antagonism of the antidiarrheal effect of loperamide hydrochloride compared with the model control group ([3]; Example 9, dose-dependent): significantly antagonize
Total Number of Diarrhea Times Six Hours after Administration [3, 7]: 20.88 ± 5.82
Total Number of Diarrhea Times Six Hours after Administration ([3]; Table 10: 300 nmol/kg by gavage + Loperamide Hydrochloride + Castor Oil, listed as Na1029): relatively high
Total Number of Diarrhea Times Six Hours after Administration ([3]; Table 11: 10 μg/kg + Loperamide Hydrochloride + Castor Oil): 5.25 ± 7.42
Total Number of Diarrhea Times Six Hours after Administration ([3]; Table 11: 30 μg/kg + Loperamide Hydrochloride + Castor Oil): 6.50 ± 5.88
Total Number of Diarrhea Times Six Hours after Administration ([3]; Table 11: 100 μg/kg + Loperamide Hydrochloride + Castor Oil): 12.13 ± 5.67
Total Number of Diarrhea Times Six Hours after Administration [3, 8]: 18.25 ± 3.99
EC50 for antagonizing the antidiarrheal effect of loperamide hydrochloride ([3]; dose-response in mice, Table 11 and FIG. 1): ~0.086 mg/kg

O=C1CC[C@@]2(O)[C@H]3Cc4ccc(O)c5c4[C@@]2(CCN3CC2CC2)[C@H]1O5 [Naltrexone, naltrexone, reference compound]
Total Number of Diarrhea Times Six Hours after Administration [3, 8]: 14.00 ± 5.76

Oc1ccc2c3c1O[C@H]1[C@H](OCCOCCOCCOCCOCCOCCO[C@@H]4CC[C@@]5(O)[C@H]6Cc7ccc(O)c8c7[C@@]5(CCN6CC5CC5)[C@H]4O8)CC[C@@]4(O)[C@@H](C2)N(CC2CC2)CC[C@]314 [Nal026, PEG6-(6-β-naltrexol)2-ether]
IC50 [1]: 183 nM
inhibition at 10 µM [1]: 100.5 ± 0.26%

CN1CC[C@]23c4c5ccc(O)c4O[C@H]2[C@@H](O)C=C[C@H]3[C@H]1C5 [Morphine, morphine, reference compound]
Average Pain Threshold after Administration (s) Mean ± SD ([2]; morphine control group, cut-off 60 s): 53.25 ± 10.96 s and 52.00 ± 9.67 s and 38.5 ± 15.58 s and 39.00 ± 17.25 s
Average Pain Threshold before Administration (s) Mean ± SD ([2]; morphine control group, hot plate 55 °C): 19.25 ± 5.57 s and 20.38 ± 3.93 s and 20.88 ± 4.91 s and 15.12 ± 6.38 s

Oc1ccc2c3c1O[C@H]1[C@@H](OCCOCCOCCO[C@H]4CC[C@@]5(O)[C@H]6Cc7ccc(O)c8c7[C@@]5(CCN6CC5CC5)[C@H]4O8)CC[C@@]4(O)[C@@H](C2)N(CC2CC2)CC[C@]314 [Nal053, PEG3-(6-α-naltrexol)2-ether]
IC50 [1]: 250 nM
inhibition at 10 µM [1]: 101.8 ± 0.97%

CN(C)C(=O)C(CCN1CCC(O)(c2ccc(Cl)cc2)CC1)(c1ccccc1)c1ccccc1 [Loperamide Hydrochloride, loperamide hydrochloride, reference compound]
Total Number of Diarrhea Times Six Hours after Administration ([3]; Table 10: 2 mg/kg loperamide hydrochloride + 0.5 mL castor oil by gavage, no conjugate): 10.88 ± 7.14
Total Number of Diarrhea Times Six Hours after Administration ([3]; Table 11: 2 mg/kg loperamide + 0.5 mL castor oil by gavage, no conjugate): 5.75 ± 3.69

C=CCN1CCC23c4c5ccc(O)c4OC2C(OCCOCCOCCOCCOCCOCCOC)CCC3(O)C1C5 (stereo not drawn) [Nal046, mPEG6-(6-β-naloxol)-ether]
IC50 ([4]; CHO-K1/Gα15/OPRM1 cells, inhibitor detection against EC80 positive agonist, RFU): 3.84 µM
Inhibition rate (%) of highest concentration (mean ± standard deviation) (N = 2) ([4]; highest concentration 10000 nM): 79.55 ± 5.73%
